Source: patent publication US11718628B2, “SREBP inhibitors comprising a 6-membered central ring” (Capulus Therapeutics, LLC, priority 2018, dated 2023)

How the values were obtained:
[1] = Log D by octanol/aqueous buffer partitioning; assay type: physicochemical; conditions: pH 7.4, 1-octanol/buffer
Outline: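 1-Octanol and aqueous buffer (1:1) with test compound, 0.15 mM DMSO stock; shaken 1 hr at room temperature, equilibrated 20 min, centrifuged for phase separation. Both phases analysed by HPLC-UV; Log D = log(octanol area/buffer area).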

[2] = Plasma and liver compound levels in mice after oral administration; assay type: in vivo
Outline: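 Mice were dosed orally by gavage with compound in 0.5% methylcellulose (5% N-methyl pyrrolidone added when needed). Retro-orbital plasma and unperfused liver collected at 6 h or 24 h and stored at −80 °C for bioanalysis.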

[3] = In vivo pharmacokinetic properties in mice (IV and PO); parameters: species or system C57BL/6J mice; conditions: mouse, in vivo
Outline: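 Male C57BL/6J mice received 10 mg/kg orally; plasma sampled by retro-orbital capillary at 0.25–24 h. IV dosing described at 2.00 mg/kg via tail vein, plasma sampled 0.083–24 h.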

[4] = test system: liver gene expression (ACACA, ACLY, FASN, LSS, PNPLA3); experiment: Liver gene expression in mice after oral administration; assay type: in vivo; conditions: vs vehicle
Outline: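 Mice were dosed by oral gavage with compounds in 0.5% methylcellulose, with 5% N-methyl pyrrolidone added when needed, and unperfused livers were collected at 6 or 24 h. Liver RNA was reverse-transcribed with random primers and ACACA, ACLY, FASN, LSS and PNPLA3 were measured by qPCR. Fold change versus vehicle was derived by ΔΔCT, and the mean of the five genes is reported as Total Fold Change.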

CC(C)(C)c1cc(-c2cncc(-c3ccc(C(=O)N4CCC(O)CC4)cc3Cl)c2)ccn1 [Compound Z-725]
LogD [1]: 3.56 | Liver ng/mg (6 h) ([2]; 10 mpk): 100 to 1000 ng/mg | Plasma ng/mL (6 h) ([2]; 10 mpk): <100 ng/mL | Liver ng/mg 24 h ([2]; 10 mpk): 100 to 1000 ng/mg | Plasma ng/mL (24 h) ([2]; 10 mpk): <100 ng/mL | Liver ng/mg (6 h) ([2]; 30 mpk): 100 to 1000 ng/mg | Plasma ng/mL (6 h) ([2]; 30 mpk): 100 to 1000 ng/mL | Liver ng/mg 24 h ([2]; 30 mpk): <100 ng/mg | Plasma ng/mL (24 h) ([2]; 30 mpk): <100 ng/mL | % F (Bioavailability of oral delivery) [3]: 58% | Intravenous Delivery (IV) AUC0-last ([3]; iv, 2 mg/kg): 1900 ng·h/mL | Intravenous Delivery (IV) CL ([3]; iv, 2 mg/kg): 17.5 mL/min/kg | Intravenous Delivery (IV) T1/2 ([3]; iv, 2 mg/kg): 3.39 h | Intravenous Delivery (IV) Vd ([3]; iv, 2 mg/kg): 5.13 L/kg | Oral Administration (PO) AUC0-last ([3]; po, 10 mg/kg): 5400 ng·h/mL | Oral Administration (PO) T1/2 ([3]; po, 10 mg/kg): 4.72 h | Oral Administration (PO) Tmax ([3]; po, 10 mg/kg): 1 h | Total Gene FC Time (6 h) ([4]; 10 mpk): +++ (0-0.509 = +++) | Total Gene FC Time (24 h) ([4]; 10 mpk): + (>0.751 = +) | Total Gene FC Time (6 h) ([4]; 30 mpk): +++ (0-0.509 = +++) | Total Gene FC Time (24 h) ([4]; 30 mpk): + (>0.751 = +)
